Experimental data published in patent US4758558A, “N-(substituted)-[7-(2-cyanoacetamido)cephalosporanic]amide derivatives having antibiotic utility” (priority 1982, dated 1988).

How the values were obtained:
a species of Bacteroides = test: Effect on intestinal bacteria: number of a sp. of Bacteroides in feces; format: in vivo, ICR mice; settings: mouse, in vivo, po, 500 mg/kg/day
Experimental: (§1) (b) Effect on the intestinal bacterial colonies: […]
(§2) Effects of the present compound on intestinal bacteria
(§3) Each of the present compounds respectively produced in Examples 1 to 18 was orally administered continuously for 2 days at a daily dose rate of 500 mg/kg body weight to each of five female ICR mice of each group after 6 weeks of their birth.
(§4) Each of the two fecal specimens respectively collected from each mouse before and after one day of the administration was diluted with 100 times by weight of an anaerobic diluent (a phosphoric acid buffer solution) and was ground in a mortar, and 0.1 ml of the thus ground material was smeared on each of the following culture media for the following bacteria, and the thus inoculated culture media were incubated under the following conditions. Thereafter, the number of the following bacteria in each of the thus cultured media was determined.
a species of Bacteroides
NBGT agar 37° C., 5 days, […]

[1] = system: Staphylococcus aureus IAM 1011; test: Antibacterial activity in vitro (MIC) against Staphylococcus aureus; format: cell-based; settings: IAM1011, Mueller-Hinton agar, 18 to 24 hours, 37° C., read-out: MIC (minimum growth inhibiting concentration) against Staphylococcus aureus
Experimental: (§5) (c) Anti-bacterial activity (in vitro):
(§6) Minimum concentration of the present compound inhibiting the growth of the following bacteria was determined according to the standard procedures of Japan Society of Chemotherapy:
Staphylococcus aureus IAM 1011
(§7) Determination of the antibacterial activity of the present compound produced in Examples 1 to 18, respectively was carried out according to the standard procedures of Japan Society of Chemotherapy for finding MIC (the minimum concentration of a specimen to inhibit the growth of a species of bacteria).
(§8) A series of diluted solutions of each of the present compound were mixed with 9 times by weight of Mueller-Hinton's culture medium as the culture medium for determining the sensitivity of a bacterial species, and flat agar culture plates were prepared by using the thus obtained mixture.
(§9) Each of the liquids respectively containing one of the bacterial species shown in Table 2 was smeared onto each of the thus prepared flat agar culture plates with a platinum loop, in length of about 2 cm, and the thus treated plates were incubated for 18 to 24 hours at 37° C. Thereafter, by observing the growth state of each bacterial species on the cultured plates, the minimum concentration of each compound completely inhibiting the growth of each bacterial species was found.

Lactobacillus bifidus = test: Effect on intestinal bacteria: number of Lactobacillus bifidus in feces; format: in vivo, ICR mice; settings: mouse, in vivo, po, 500 mg/kg/day
Experimental: as §1, §2, §3, §4
BS agar 37° C., 5 days, […]

[2] = system: Escherichia coli IFO 12734; test: Antibacterial activity in vitro (MIC) against Escherichia coli; format: cell-based; settings: IFO12734, Mueller-Hinton agar, 18 to 24 hours, 37° C., read-out: MIC (minimum growth inhibiting concentration) against Escherichia coli
Experimental: as §5, §6
Escherichia coli IFO 12734 and
as §7, §8, §9

[3] = system: Escherichia coli IFO 12734; test: Treatment of experimental infectious disease in mouse due to Escherichia coli; format: in vivo, ddY SPE mice; settings: oral, two times just after and 4 hours after inoculation; 1.4×10^8 cells i.p.
Text: (§10) (e) Effectiveness in treating experimental infectious disease due to bacteria:
(§11) (Refer to Example 22 for the details of the test.) As the result, while all the twenty mice artificially infected with each of the two bacterial species and not-treated with any of the present compound died on the second day of inoculation, more than 40% of the twenty mice artificially infected with each of the two bacterial species and administered with each of the three present compounds were alive even after 7 days of inoculation.
(§12) Effectiveness of the present compound in treatment of an experimental infectious disease in mouse
(1) Disease due to infection of Escherichia coli
(§13) Each mouse of the two groups (20 animals/group) of ddY SPE mice was inoculated with 1.4×10^8 cells of Escherichia coli IFO 12734 intraperitoneally, and then, each mouse of the one of the two groups was administered orally with one of the present compounds, namely the compound produced in Example 5, 10 or 13, two times just after and 4 hours after the inoculation, while the 20 mice of the other group were not administered.

[4] = system: a species of Streptococcus; test: Effect on intestinal bacteria: number of a sp. of Streptococcus in feces; format: in vivo, ICR mice; settings: mouse, in vivo, po, 500 mg/kg/day
Experimental: as §1, §2, §3, §4
a species of Streptococcus
TATAC agar 37° C., one day, […]

Escherichia coli = test: Effect on intestinal bacteria: number of Escherichia coli in feces; format: in vivo, ICR mice; settings: after oral administration for 2 days, 500 mg/kg/day, female ICR mice; before: 6.4
Experimental: (b) Effect on the intestinal bacterial colonies:
[…] Each portion of the two kinds of the feces was cultured at 25° C. or 37° C. in a variety of culture medium for one to five days to see the state of Escherichia coli, Pseudomonas aeruginosa, a Streptococcus species, a Lactobacillus species, Lactobacillus bifidus and a Bacteroides species in the culture medium.
as §2
as §4, with “specimens respectively collected from each mouse before and after one day of the administration was diluted with 100 times” left out

[5] = system: a species of Lactobacillus; test: Effect on intestinal bacteria: number of a sp. of Lactobacillus in feces; format: in vivo, ICR mice; settings: mouse, in vivo, po, 500 mg/kg/day
Experimental: as §1, §2, §3, §4
a species of Lactobacillus
LBS agar 37° C., 5 days, […]

[6] = system: Staphylococcus aureus IAM 1011; test: Treatment of experimental infectious disease in mouse due to Staphylococcus aureus; format: in vivo, ddY SPE mice; settings: oral, two times just after and 4 hours after inoculation; 2.3×10^8 cells i.p.
Text: as §10, §11, §12
(2) Disease due to infection of Staphylococcus aureus
as §13, with “2.3×10^8” for “1.4×10^8”, “Staphylococcus aureus IAM 1011” for “Escherichia coli IFO 12734”

Pseudomonas aeruginosa = test: Effect on intestinal bacteria: number of Pseudomonas aeruginosa in feces; format: in vivo, ICR mice; settings: mouse, in vivo, po, 500 mg/kg/day
Experimental: as §2, §3, §4
NAC agar 37° C., one day, […]

Structure (SMILES)	Number of a sp. of Bacterioides after the administration (a species of Bacteroides)	MIC [1] [µg/mL]	Number of Lactobacillus bifidus after the administration (Lactobacillus bifidus)	MIC [2] [µg/mL]	Number of a sp. of Streptococcus after the administration [4]	Number of Escherichia coli after the administration (Escherichia coli)	Number of a sp. of Lactobacillus after the administration [5]	Number of Pseudomonas aeruginosa after the administration (Pseudomonas aeruginosa)	mice alive on the 7th day of inoculation (Escherichia coli infection) [3]	mice alive on the 7th day of inoculation (Staphylococcus aureus infection) [6]
COC(=O)c1ccc(NC(=O)C2=C(CSc3nnc(C)s3)CSC3C(NC(=O)Cn4cnnn4)C(=O)N23)cc1 (stereo not drawn) [Example 13, N-(4-carbomethoxyphenyl)-{7-(1-1H-tetrazolylacetamido)-3-[2-(5-methyl-1,3,4-thiadiazolyl)thiomethyl]-3-cephem-4-carboxylic}amide]	8.7 Log10 (number of bacteria/g feces)	≥ 12.5	8.4 Log10 (number of bacteria/g feces)	≥ 100	6.6 Log10 (number of bacteria/g feces)	6.4 Log10 (number of bacteria/g feces)	9.0 Log10 (number of bacteria/g feces)	< 3.0 Log10 (number of bacteria/g feces)	more than 80%	more than 60%
COC(=O)CNC(=O)c1ccc(NC(=O)C2=C(C)CSC3C(NC(=O)[C@H](N)c4ccccc4)C(=O)N23)cc1 (stereo partly drawn) [Example 5, N-(4-carbomethoxymethylcarbamoylphenyl)-[7-(D-alpha-aminophenylacetamido)desacetoxycephalosporanic]amide]	8.4 Log10 (number of bacteria/g feces)	≥ 100	8.4 Log10 (number of bacteria/g feces)	≥ 100	6.7 Log10 (number of bacteria/g feces)	6.5 Log10 (number of bacteria/g feces)	8.9 Log10 (number of bacteria/g feces)	< 3.0 Log10 (number of bacteria/g feces)	more than 60%	more than 65%
Cc1nnc(SCC2=C(C(=O)NCCc3ccc(O)cc3)N3C(=O)C(NC(=O)Cn4cnnn4)C3SC2)s1 (stereo not drawn) [Example 17, N-[beta-(4-hydroxyphenyl)ethyl]-{7-(1-1H-tetrazolylacetamido)-3-[2-(5-methyl-1,3,4-thiadiazolyl)thiomethyl]-3-cephem-4-carboxylic}amide]	8.1 Log10 (number of bacteria/g feces)	≥ 0.78	8.4 Log10 (number of bacteria/g feces)	≥ 3.12	6.9 Log10 (number of bacteria/g feces)	6.4 Log10 (number of bacteria/g feces)	9.0 Log10 (number of bacteria/g feces)	< 3.0 Log10 (number of bacteria/g feces)	–	–
Cc1nnc(SCC2=C(C(=O)Nc3ccc(C(=O)O)cc3)N3C(=O)C(NC(=O)Cn4cnnn4)C3SC2)s1 (stereo not drawn) [Example 12, N-(4-carboxyphenyl)-{7-(1-1H-tetrazolylacetamido)-3-[2-(5-methyl-1,3,4-thiadiaziolyl)thiomethyl]-3-cephem-4-carboxylic}amide]	8.8 Log10 (number of bacteria/g feces)	≥ 1.56	8.2 Log10 (number of bacteria/g feces)	≥ 25	6.7 Log10 (number of bacteria/g feces)	6.5 Log10 (number of bacteria/g feces)	8.9 Log10 (number of bacteria/g feces)	< 3.0 Log10 (number of bacteria/g feces)	–	–

Second part, led by results:

Number of a sp. of Bacterioides after the administration (a species of Bacteroides)	MIC [1] [µg/mL]	Number of Lactobacillus bifidus after the administration (Lactobacillus bifidus)	MIC [2] [µg/mL]	Number of a sp. of Streptococcus after the administration [4]	Number of Escherichia coli after the administration (Escherichia coli)	Number of a sp. of Lactobacillus after the administration [5]	Number of Pseudomonas aeruginosa after the administration (Pseudomonas aeruginosa)	Structure (SMILES)	mice alive on the 7th day of inoculation (Escherichia coli infection) [3]	mice alive on the 7th day of inoculation (Staphylococcus aureus infection) [6]
8.7 Log10 (number of bacteria/g feces)	≥ 50	8.6 Log10 (number of bacteria/g feces)	≥ 100	6.6 Log10 (number of bacteria/g feces)	6.5 Log10 (number of bacteria/g feces)	9.0 Log10 (number of bacteria/g feces)	< 3.0 Log10 (number of bacteria/g feces)	COC(=O)Cc1ccc(NC(=O)C2=C(COC(C)=O)CSC3C(NC(=O)CSc4ccncc4)C(=O)N23)cc1 (stereo not drawn) [Example 2, N-(4-carbomethoxymethylphenyl)-[7-(4-pyridylthioacetamido)caphalosporanic]amide]	–	–
8.7 Log10 (number of bacteria/g feces)	≥ 100	8.3 Log10 (number of bacteria/g feces)	≥ 100	6.7 Log10 (number of bacteria/g feces)	6.5 Log10 (number of bacteria/g feces)	9.0 Log10 (number of bacteria/g feces)	< 3.0 Log10 (number of bacteria/g feces)	COC(=O)c1ccc(NC(=O)C2=C(COC(C)=O)CSC3C(NC(=O)CC#N)C(=O)N23)cc1 (stereo not drawn) [Example 7, N-(4-carbomethoxyphenyl)-[7-(2-cyanoacetamido)cephalosporanic]amide]	–	–
8.8 Log10 (number of bacteria/g feces)	≥ 12.5	8.4 Log10 (number of bacteria/g feces)	≥ 100	6.7 Log10 (number of bacteria/g feces)	6.9 Log10 (number of bacteria/g feces)	9.1 Log10 (number of bacteria/g feces)	< 3.0 Log10 (number of bacteria/g feces)	COC(=O)c1ccc(NC(=O)C2=C(COC(C)=O)CSC3C(NC(=O)CSc4ccncc4)C(=O)N23)cc1 (stereo not drawn) [Example 1, N-(4-carbomethoxyphenyl)-[7-beta-(4-pyridylthioacetamido)cephalosporanic]amide]	–	–
